Measured values: PubChem BioAssay AID2060897 (Molecular Pharmacology Branch, DTP, NCI, 2025)

Tested on: 966289-007-R4-J1-PDC complex spheroid viability
Assay: Anticancer human tumor 966289-007-R4-J1-PDC patient-derived pancreatic adenocarcinoma cell line growth inhibition [RAS]
Settings: for IC50: curve of first compound; for viability, T/C: stronger effect = lower value
Description: RAS pathway inhibitors in Combinations in Complex Spheroids
A high-throughput screen of multi-cell type tumor spheroids was designed to identify active combinations of RAS pathway inhibitors and targeted small molecules. Complex spheroids include a stromal component modeled by human endothelial cells (HUVEC) and fibroblasts modeled by human mesenchymal stem cells (MSCs). The concentration ranges selected for each drug and investigational agent were based upon clinically achievable concentrations if the clinical Cmax of the agent was known.
Compounds. The drugs and investigational agents: abemaciclib (NSC768073), cobimetinib (NSC768068), divarasib (GDC6063, NSC841802), docetaxel (NSC628503), GDC-1971 (RLY-1971, NSC841576), gemcitabine (NSC613327), inavolisib (NSC800729), ipatasertib (NSC767898), KB-0742 (NSC834161), MRTX-1133 (NSC836407), osimertinib (NSC779217), RMC-4630 (NSC839698), RMC-6236 (NSC851965), RMC-6291 (NSC852671), Ro-3306 (NSC812927), sapanisertib (NSC764658), SN-38 (NSC673596), staurosporine (NSC755774), SY5609 (NSC837396), and tovorafenib (DAY101, NSC766906), were obtained from the National Cancer Institute (NCI) Developmental Therapeutics Program Chemical Repository. The FDA-approved anticancer drug set is available from the NCI Developmental Therapeutics Program. […] The stock solutions were prepared in dimethyl sulfoxide (DMSO, Sigma-Aldrich, St. Louis, MO, cat. D2650) at 800-fold the tested concentration and stored at -70 degrees C prior to their use. All drugs and investigational agents were tested over a range starting from a high concentration at or near the clinical Cmax and decreasing in half-log increments. If the clinical Cmax for an agent had not been determined, the highest concentration tested was 10 microM.
Cell Culture. All cells were maintained in an incubator at 37 degrees C and 5% CO2 with 95% humidity. The PDC lines were cultured according to standard operating procedures established by the NCI PDMR. All PDCs were thawed and cultured in Matrigel-coated flasks prepared with a working solution of 1X Ham's F-12 nutrient mix, without supplementation (Invitrogen, Waltham, MA, cat. 11765054), 100 U/mL penicillin-streptomycin (Invitrogen, cat. 15140122), and 2.5% Matrigel (Corning Inc., Corning, NY, cat. 354248) for the first three passages. The 362531-283-R-J2-PDC and 782815-120-R-J1-PDC lines were cultured in 6C/Colon 1B media, which includes advanced DMEM/F-12 (Thermo Fisher Scientific, cat. 12634028), 10 mM HEPES (Thermo Fisher Scientific, cat. 15630080), 1X GlutaMAX supplement (Thermo Fisher Scientific, cat. 35050061), 0.1 mg/mL primocin (InvivoGen, San Diego, CA, cat. ant-pm-2), 10% defined fetal bovine serum, heat inactivated (HyClone Laboratories Inc., Logan, UT, cat. SH30070.03HI), 50% L-WRN conditioned media (ATCC, cat. CRL-3276), 1.25 mM N-Acetyl-L-cysteine (Sigma-Aldrich, cat. A9165), 10 mM nicotinamide (Sigma-Aldrich, cat. N0636), 1X B-27 supplement (Thermo Fisher Scientific, cat. 17504044), 1X N-2 supplement (Thermo Fisher Scientific, cat. 17502048), 50 ng/mL human EGF (Thermo Fisher Scientific, cat. PHG0311), and 10 microM Y-27632 dihydrochloride (Tocris Bioscience, cat. 1254). The K12877-001-R-J1-PDC line was cultured in 6I media, which includes all 6C/Colon 1B media plus 10 ng/mL human FGF-10 (PeproTech, cat. 100-26), 1 ng/mL human FGF-2 (PeproTech, cat. 100-18B), 1 µM prostaglandin E2 (Tocris Bioscience, cat. 2296), […] hydrocortisone (Sigma-Aldrich, cat. H4001), and […] bovine insulin (Sigma-Aldrich, cat. I6634). The K86415-001-R-J1-PDC line was cultured in 6D media, which includes all 6C/Colon 1B media components minus the L-WRN conditioned media. The 485176-168-R4-J1-PDC was cultured in PANC media, which includes all 6C/Colon 1B media plus 100 ng/mL human FGF-10 (PeproTech, cat. 100-26), 500 nM SB-431542 (Selleckchem, cat. S1067), and 10 nM gastrin (Tocris Bioscience, cat. 3006). […]
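Further: spheroids exposed to agents for one week before readout.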
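Wherever viability, T/C is given: percent viability relative to DMSO vehicle control wells as 100%.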

With `CCN1CCN(Cc2ccc(Nc3ncc(F)c(-c4cc(F)c5nc(C)n(C(C)C)c5c4)n3)nc2)CC1` + C=CC(=O)N1CCN(c2nc(OCC3CCCN3C)nc3c(F)c(-c4nc(N)cc(C)c4C(F)(F)F)c(Cl)cc23)C(C)C1 the IC50 (second compound 0.00316 µM) was > 1000 nM, the IC50 (second compound 0.01 µM) was > 1000 nM and the IC50 (second compound 0.0316 µM) was > 1000 nM. For the same compound, the IC50 (second compound 0.1 µM) was > 1000 nM, the IC50 (second compound 0.316 µM) was > 1000 nM and the IC50 (second compound 1 µM) was > 1000 nM. The viability, T/C (second compound 0.00316 µM, first compound 0.00316 µM) was 109%, the viability, T/C (second compound 0.00316 µM, first compound 0.01 µM) was 110% and the viability, T/C (second compound 0.00316 µM, first compound 0.0316 µM) was 101%. The viability, T/C (second compound 0.00316 µM, first compound 0.1 µM) was 95.8%, the viability, T/C (second compound 0.00316 µM, first compound 0.316 µM) was 83.5% and the viability, T/C (second compound 0.00316 µM, first compound 1 µM) was 76.2%. For the same compound, the viability, T/C (second compound 0.01 µM, first compound 0.00316 µM) was 96%, the viability, T/C (second compound 0.01 µM, first compound 0.01 µM) was 110% and the viability, T/C (second compound 0.01 µM, first compound 0.0316 µM) was 120%. For the same compound, the viability, T/C (second compound 0.01 µM, first compound 0.1 µM) was 107%, the viability, T/C (second compound 0.01 µM, first compound 0.316 µM) was 99.1% and the viability, T/C (second compound 0.01 µM, first compound 1 µM) was 72.6%. The viability, T/C (second compound 0.0316 µM, first compound 0.00316 µM) was 116%, the viability, T/C (second compound 0.0316 µM, first compound 0.01 µM) was 126% and the viability, T/C (second compound 0.0316 µM, first compound 0.0316 µM) was 106%. For the same compound, the viability, T/C (second compound 0.0316 µM, first compound 0.1 µM) was 113%, the viability, T/C (second compound 0.0316 µM, first compound 0.316 µM) was 84.8% and the viability, T/C (second compound 0.0316 µM, first compound 1 µM) was 72.8%. For the same compound, the viability, T/C (second compound 0.1 µM, first compound 0.00316 µM) was 107%, the viability, T/C (second compound 0.1 µM, first compound 0.01 µM) was 121% and the viability, T/C (second compound 0.1 µM, first compound 0.0316 µM) was 121%. For the same compound, the viability, T/C (second compound 0.1 µM, first compound 0.1 µM) was 109%, the viability, T/C (second compound 0.1 µM, first compound 0.316 µM) was 78.8% and the viability, T/C (second compound 0.1 µM, first compound 1 µM) was 78.7%. It also gave a viability, T/C (second compound 0.316 µM, first compound 0.00316 µM) of 106%, a viability, T/C (second compound 0.316 µM, first compound 0.01 µM) of 103% and a viability, T/C (second compound 0.316 µM, first compound 0.0316 µM) of 120%. The viability, T/C (second compound 0.316 µM, first compound 0.1 µM) was 105%, the viability, T/C (second compound 0.316 µM, first compound 0.316 µM) was 89.4% and the viability, T/C (second compound 0.316 µM, first compound 1 µM) was 73.4%. For the same compound, the viability, T/C (second compound 1 µM, first compound 0.00316 µM) was 98.5%, the viability, T/C (second compound 1 µM, first compound 0.01 µM) was 98.6% and the viability, T/C (second compound 1 µM, first compound 0.0316 µM) was 120%. The viability, T/C (second compound 1 µM, first compound 0.1 µM) was 102%, the viability, T/C (second compound 1 µM, first compound 0.316 µM) was 79% and the viability, T/C (second compound 1 µM, first compound 1 µM) was 77.2%.
With `CC1(O)CCCC1n1c(=O)c(C(F)F)cc2cnc(NC3CCN(S(C)(=O)=O)CC3)nc21` (centres undefined) + CCn1c(-c2cc(N3CCN(C)CC3)cnc2C(C)OC)c2c3cc(ccc31)-c1csc(n1)CC(NC(=O)C1CC1C)C(=O)N1CCCC(N1)C(=O)OCC(C)(C)C2 the IC50 (second compound 0.000949 µM) was 169 nM, the IC50 (second compound 0.003 µM) was 120 nM and the IC50 (second compound 0.00949 µM) was 108 nM. For the same compound, the IC50 (second compound 0.03 µM) was 92.8 nM, the IC50 (second compound 0.0949 µM) was 96 nM and the IC50 (second compound 0.3 µM) was 139 nM. For the same compound, the viability, T/C (second compound 0.000949 µM, first compound 0.0316 µM) was 148%, the viability, T/C (second compound 0.000949 µM, first compound 0.1 µM) was 63.6% and the viability, T/C (second compound 0.000949 µM, first compound 0.316 µM) was 28.7%. For the same compound, the viability, T/C (second compound 0.000949 µM, first compound 1 µM) was 29.1%, the viability, T/C (second compound 0.000949 µM, first compound 3.16 µM) was 26.8% and the viability, T/C (second compound 0.000949 µM, first compound 10 µM) was 2.64%. For the same compound, the viability, T/C (second compound 0.003 µM, first compound 0.0316 µM) was 125%, the viability, T/C (second compound 0.003 µM, first compound 0.1 µM) was 51.6% and the viability, T/C (second compound 0.003 µM, first compound 0.316 µM) was 27.8%. It also gave a viability, T/C (second compound 0.003 µM, first compound 1 µM) of 24.4%, a viability, T/C (second compound 0.003 µM, first compound 3.16 µM) of 24.8% and a viability, T/C (second compound 0.003 µM, first compound 10 µM) of 3.3%. For the same compound, the viability, T/C (second compound 0.00949 µM, first compound 0.0316 µM) was 98.4%, the viability, T/C (second compound 0.00949 µM, first compound 0.1 µM) was 52.7% and the viability, T/C (second compound 0.00949 µM, first compound 0.316 µM) was 22.4%. For the same compound, the viability, T/C (second compound 0.00949 µM, first compound 1 µM) was 25.9%, the viability, T/C (second compound 0.00949 µM, first compound 3.16 µM) was 26% and the viability, T/C (second compound 0.00949 µM, first compound 10 µM) was 3.14%. It also gave a viability, T/C (second compound 0.03 µM, first compound 0.0316 µM) of 85%, a viability, T/C (second compound 0.03 µM, first compound 0.1 µM) of 48.6% and a viability, T/C (second compound 0.03 µM, first compound 0.316 µM) of 21.9%. For the same compound, the viability, T/C (second compound 0.03 µM, first compound 1 µM) was 23.7%, the viability, T/C (second compound 0.03 µM, first compound 3.16 µM) was 25.1% and the viability, T/C (second compound 0.03 µM, first compound 10 µM) was 3%. It also gave a viability, T/C (second compound 0.0949 µM, first compound 0.0316 µM) of 84.5%, a viability, T/C (second compound 0.0949 µM, first compound 0.1 µM) of 47.4% and a viability, T/C (second compound 0.0949 µM, first compound 0.316 µM) of 25.4%. For the same compound, the viability, T/C (second compound 0.0949 µM, first compound 1 µM) was 27.1%, the viability, T/C (second compound 0.0949 µM, first compound 3.16 µM) was 26.6% and the viability, T/C (second compound 0.0949 µM, first compound 10 µM) was 2.94%. It also gave a viability, T/C (second compound 0.3 µM, first compound 0.0316 µM) of 107%, a viability, T/C (second compound 0.3 µM, first compound 0.1 µM) of 55.9% and a viability, T/C (second compound 0.3 µM, first compound 0.316 µM) of 28.7%. For the same compound, the viability, T/C (second compound 0.3 µM, first compound 1 µM) was 25.8%, the viability, T/C (second compound 0.3 µM, first compound 3.16 µM) was 24.9% and the viability, T/C (second compound 0.3 µM, first compound 10 µM) was 3.18%.
